Results taken from ChEMBL document CHEMBL1128459, “Characterization of potent and selective antagonists at postsynaptic 5-HT1A receptors in a series of N4-substituted arylpiperazines” (J Med Chem, 1995).

target: 5-hydroxytryptamine receptor 1A (Rattus norvegicus) (UniProt P19327); experiment: Ki ratio measured as the Ki values of dopamine receptor to that of 5-hydroxytryptamine 1A receptor
Sequence (P19327 whole entry, looked up): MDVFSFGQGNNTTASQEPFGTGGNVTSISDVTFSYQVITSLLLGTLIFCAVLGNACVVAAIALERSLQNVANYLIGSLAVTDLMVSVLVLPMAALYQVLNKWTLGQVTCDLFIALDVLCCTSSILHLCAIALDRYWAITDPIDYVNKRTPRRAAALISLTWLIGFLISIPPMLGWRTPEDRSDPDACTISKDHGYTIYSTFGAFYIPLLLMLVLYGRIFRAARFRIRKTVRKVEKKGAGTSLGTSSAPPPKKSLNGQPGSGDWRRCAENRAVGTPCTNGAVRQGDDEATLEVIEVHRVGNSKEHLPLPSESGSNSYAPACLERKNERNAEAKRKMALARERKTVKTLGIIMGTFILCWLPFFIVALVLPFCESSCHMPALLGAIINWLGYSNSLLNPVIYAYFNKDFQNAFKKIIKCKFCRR

**Q.** `COc1cc2c(cc1OC)C(CCN1CCN(c3cccc4c3OCCO4)CC1)CC2` (stereo unspecified) was tested. Which Ki ratio did it give?
**A.** 83.4

**Q.** For `Clc1cccc2c1CC2CCN1CCN(c2cccc3c2OCCO3)CC1` (stereo unspecified), which Ki ratio is on record?
**A.** 26.9

**Q.** How did the Ki ratio turn out when `c1ccc2c(c1)CC(N1CCN(c3cccc4c3OCCCO4)CC1)C2` was run?
**A.** 51.3

target: 5-hydroxytryptamine receptor 1A (Rattus norvegicus) (UniProt P19327); experiment: Ki ratio measured as the Ki values of dopamine receptor to that of 5-hydroxytryptamine 1A receptor receptor.

**Q.** For `c1ccc2c(c1)CC2CCN1CCN(c2cccc3c2OCCO3)CC1` (stereo unspecified), which Ki ratio is on record?
**A.** 79.4

**Q.** `c1ccc2c(c1)CC(N1CCN(c3cccc4c3OCCO4)CC1)C2` was tested. Which Ki ratio did it give?
**A.** 195

**Q.** With `COc1ccccc1N1CCN(C[C@@H](C(=O)NC(C)(C)C)c2ccccc2)CC1` as the compound, how does the Ki ratio read?
**A.** 12
